Assay results published in publication PMC6930570, “2-Arylidene-1-indandiones as Pleiotropic Agents with Antioxidant and Inhibitory Enzymes Activities” (Molecules, 2019).

What was measured:
[1] = Experimental lipophilicity as RM values by RPTLC; assay type: physicochemical; design: key: RM = log[(1/Rf) − 1], from Rf values by RPTLC; details: methanol/water 70/30, 24 °C, average of at least 5 measurements
From the text: Lipophilicity is a physicochemical parameter indicating the relationship of a drug to its biological activity. It affects ligand-target binding interactions, solubility, ADME (absorption, distribution, bioavailability, metabolism, and elimination) and toxicological effects. RPTLC (reverse phase thin layer chromatography) method was used for the experimental determination, as RM values. The RPTLC method is considered a secure, rapid and appropriate method for expressing the lipophilic character of a compound (Table 1).
Reversed phase TLC (RPTLC) was performed on silica gel plates impregnated with 5% (v/v) liquid paraffin in light petroleum ether. The mobile phase was a methanol/water mixture (70/30, v/v). The plates were developed in closed chromatography tanks saturated with the mobile phase at 24 °C. Spots were detected under UV light. Five individual measurements of Rf values were recorded and used for the determination of RM using the equation RM = log [(1/Rf) − 1] [59, 60, 62] (Table 2).

[2] = Reducing activity of the stable radical DPPH; assay type: biochemical
Method: The novel derivatives were studied for their interaction with the sTable 2,2-diphenyl-1-picrylhydrazyl free radical (DPPH)at concentration 50 µM, 100 µM and 200 µM after 20 and 60 min (Table 2). In this assay the DPPH radical is reduced transferring one electron from the antioxidant. Phenolic compounds such as catechol and derivatives generate phenoxide anions with strong antioxidant capacity. Nordihydroguaretic acid (NDGA), the reference compound acts by this mechanism. Compound 10 presents the highest scavenging activity at 100 µM after 20 min correlated with the presence of the phenolic OH. Compounds 3, 4, 5, 7 presented medium activities depending from time and concentration. The presence of the heteroatom O or S seems to influence the activity e.g., derivatives 1, 2, and 3. Replacement of phenyl ring (4) by a thienyl group (1) decreases antioxidant behavior. […] On the contrary the presence of the furyl ring (3) enhances reduction. Additionally, the presence of a π-dimethyl-amino group 6 reduces the scavenging ability whereas its absence in (5), increases the activity. The presence of two conjugated double bonds (5) leads to lower activity compared to the simpler compound 4. Compounds 9 and 10 present the highest milogP values (5.94). Both include a phenolic hydrogen in their structure. […] On the contrary in compound 9 steric reasons are possible to lead to a decrease. Lipophilicity seems to influence the interaction of compound 10.
To a solution of DPPH in absolute ethanol an equal volume of the compounds with final concentrations of 50, 100 and 200 µM from a stock solution of 10 mM (in 1% DMSO and ethanol) was added. After 20 and 60 min the absorbance was recorded at 517 nm at room temperature (Table 2).

[3] = target: T1, soybean lipoxygenase (Glycine max, UniProt P08170); test: Soybean lipoxygenase inhibition in vitro; assay type: biochemical; details: sodium linoleate substrate, no = no action under the experimental conditions, read-out: LOX (% Inhibition 100 µM)
T1 construct: purchased Sigma Chemical, Co. (St. Louis)
T1 sequence (P08170 1-839): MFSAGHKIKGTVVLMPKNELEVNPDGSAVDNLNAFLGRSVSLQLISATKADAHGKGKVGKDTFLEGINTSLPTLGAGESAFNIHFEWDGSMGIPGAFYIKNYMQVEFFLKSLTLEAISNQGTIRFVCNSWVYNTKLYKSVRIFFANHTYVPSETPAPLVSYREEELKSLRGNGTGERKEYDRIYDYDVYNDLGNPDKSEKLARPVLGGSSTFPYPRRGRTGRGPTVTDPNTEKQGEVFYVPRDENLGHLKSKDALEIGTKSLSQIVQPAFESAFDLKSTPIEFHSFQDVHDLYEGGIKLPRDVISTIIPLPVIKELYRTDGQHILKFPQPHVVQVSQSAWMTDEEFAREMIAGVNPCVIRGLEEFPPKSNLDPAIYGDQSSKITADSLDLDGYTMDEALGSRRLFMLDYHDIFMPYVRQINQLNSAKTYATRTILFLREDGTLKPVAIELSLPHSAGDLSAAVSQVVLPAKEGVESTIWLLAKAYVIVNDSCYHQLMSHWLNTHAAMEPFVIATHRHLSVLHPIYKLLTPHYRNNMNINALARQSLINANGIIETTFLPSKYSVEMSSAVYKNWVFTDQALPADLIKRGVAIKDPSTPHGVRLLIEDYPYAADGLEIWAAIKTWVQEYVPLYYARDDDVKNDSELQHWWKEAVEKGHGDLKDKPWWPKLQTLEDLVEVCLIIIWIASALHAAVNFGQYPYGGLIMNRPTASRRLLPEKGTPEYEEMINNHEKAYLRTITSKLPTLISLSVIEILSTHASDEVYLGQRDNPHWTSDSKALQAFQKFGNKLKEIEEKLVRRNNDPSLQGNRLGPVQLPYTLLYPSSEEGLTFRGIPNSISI
Method: Thus, we used soybean LOX in our in vitro experiments.
In vitro study was performed as reported previously by our group. Sodium linoleate (0.1 mM) and 0.2 mL of enzyme solution (1/9 × 104 w/v in saline) were used for the incubation of the tested derivatives.

[4] = Inhibition of linoleic acid peroxidation induced by AAPH; assay type: biochemical; details: no = no action under the experimental conditions
From the text: In the water soluble 2,2′-azobis(2-amidinopropane) hydrochloride (AAPH) the free radicals are produced in vitro through spontaneous thermal decomposition resembling to lipid peroxidation in cells due to the action of the peroxyl radicals. […] Compounds 11, 5, 4 and 3 presented no activity under the experimental conditions. From the experimental results it can be concluded that the 3,5-di-tert-butyl-group offers protection against lipid peroxidation. Electronic parameters expressed by the highest occupied molecular orbital (HOMO) describes better the biological activity (Equation (2)). log AAPH % = −22.042(± 8.731) HOMO − 4.853 (2.622)(2) n = 8, r = 0.930, r^2 = 0.864, q^2 = 0.567, s = 0.146, F1,8 = 5.783, α = 0.1
The oxidation reaction was started with 2,2′-Azobis(2-amidinopropane) dihydrochloride (AAPH) as a free radical initiator. Linoleic acid sodium salt was oxidized at 234 nm to a conjugated diene hydroperoxide resulting an increased absorption. Trolox was used as reference compound (93%) (Table 3).

[5] = ABTS+. decolorization assay; assay type: biochemical; details: 1 min, no = no action under the experimental conditions
From the text: The radical cation ABTS^+• is directly generated through potassium persulfate by oxidation with no participation of an intermediary radical and then the reduction is followed by adding electron-donating antioxidants. In this assay the radical is generated before adding the antioxidant (decolorization assay). […] It seems that lipophilicity influences the activity, since both are presenting high lipophilicity values. […] The radical cation ABTS^+• was generated from an ABTS stock solution in water (7 mM) which was mixed with potassium persulfate (2.45 mM) and left in the dark at room temperature for 12–16 h before use. The results are recorded after 1min of the mixing solutions at 734 nm and compared to the appropriate standard inhibitor Trolox (Table 3).

[6] = tested on: trypsin; test: In vitro inhibition of trypsin induced proteolysis; assay type: biochemical; details: bovine albumin substrate, no = no action under the experimental conditions
Method: Serine proteases are implicated in the pathophysiology of inflammatory diseases and trypsin is well known years ago [66]. Trypsin has been associated with host defense reactions and tissue damage. In this study, the novel derivatives have been evaluated towards trypsin and thrombin. Compounds 8 and 9 present high activity.
The Kunitz method was used after modification using bovine albumin was used as substrate for trypsin. In this assay, first 200 μL of 0.075 mg/mL trypsin and 780 μL of phosphate buffer pH 7.6 including the tested compounds (20 μL in DMSO, final concentration 100 μM) were pre-incubated at 37 °C for 20 min and then added 1 mL of albumin (stock solution 6 g/100 mL in phosphate buffer 0.1 M, pH 7.6) and incubated at 37 °C for 30 min. Secondly 1mLof 5% trichloroacetic acid was added to the incubated solution to stop the enzyme’s reaction and allowed to set at room temperature for 1 h. Then the solution was filtered, and the absorption of the filtrate was measured at 280 nm using salicylic acid as a reference compound [61] (Table 3).

[7] = tested on: carrageenin-induced rat paw edema; test: Inhibition of the carrageenin-induced rat paw edema (CPE); assay type: in vivo, Fisher 344 rats; details: Rattus norvegicus, ip; 0.01 mmol/kg body weight, intraperitoneally, 3.5 h after carrageenin; read-out: CPE % (reduction of the rat paw edema)
From the text: Carrageenin-induced rat paw edema (CPE) model was used to study the in vivo anti-inflammatory activity of the tested derivatives and the results are presented in Table 3. […] Compounds 2, 7, 8, 10, and 12 presented small differences in their biological activity. The presence of the thienyl group as well as of the furyl leads to higher anti-inflammatory activity (1 and 3) while substitution with a phenyl group leads to two-fold decrease of the activity (28%).
Edema was induced in the right hind paw of Fisher 344 rats (150–200 g) by the intradermal injection of 0.1 mL 2% carrageenin in water. Both sexes were used while females pregnant were excluded. Each group was composed of 6–15 animals. The animals, which have been bred in our laboratory, were housed under standard conditions and received a diet of commercial food pellets and water ad libitum during the maintenance but they were entirely fasted during the experiment period. Our studies were in accordance with recognised guidelines on animal experimentation. (guidelines for the care and use of laboratory animals published by the Greek Government 160/1991, based on EU regulations 86/609). Rats were kept in the Centre of the School of Veterinary Medicine (EL54 BIO42), Aristotle University of Thessaloniki, which is registered by the official state veterinary authorities (presidential degree 56/2013, in harmonization with the European Directive 2010/63/EEC). The experimental protocols were approved by the Animal Ethics Committee of the Prefecture of Central Macedonia (no. 270079/2500). The tested compounds 0.01 mmol/kg body weight were suspended in water, with a few drops of Tween 80 and ground in a mortar before use and were given intraperitoneally simultaneously with the carrageenin injection. The rats were euthanized 3.5 h after carrageenin injection. The difference between the weight of the injected and uninjected paws was calculated for each animal. The change in paw weight was compared with that in control animals (treated with water) and expressed as a percent inhibition of the edema CPE % values […] [58, 59]. Indomethacin in 0.01 mmol/kg (47%). Values CPE % are the mean from two different experiments with a standard error of the mean less than 10% (Table 3).

[8] = target: T2, bovine thrombin (Bos taurus, UniProt P00735); test: In vitro inhibition of thrombin; assay type: biochemical; details: substrate tosyl-Gly-Pro-Arg-pNA, no = no action under the experimental conditions, read-out: TH% 100 µM (thrombin inhibition)
T2 construct: purchased Sigma Chemical, Co. (St. Louis)
Method: It is well known that indandione derivatives exert their anticoagulant activity indirectly by inhibiting prothrombin synthesis in the liver. […] Derivatives 1, 2, 5, 8, 9, 10, and 12 were tested in vitro as possible thrombin inhibitors. Among the tested derivatives compound 8 presented 100% inhibition followed by compounds […] and 10.
As a substrate tosyl-Gly-Pro-Arg-pNA acetate salt was used at 1 mM final concentration. Compounds were dissolved at a final concentration of […] in a Tris-buffer (0.05 M Tris, 0.154 M NaCl, ethanol 5%, pH = 8.0). Three minutes after the addition of bovine thrombin (2.5 unit/mg), the reaction was ended by adding 1 mL acetic acid 50%. The absorption of the released p-nitro-aniline was measured at 405 nm (Table 3). Warfarin and Inogatran were used as reference compounds.

| SMILES | RM (±SD) [1] | RA% 50 µM 20 min [2] [%] | RA% 50 µM 60 min [2] [%] | RA% 100 µM 20 min [2] [%] | RA% 100 µM 60 min [2] [%] | RA% 200 µM 20 min [2] [%] | RA% 200 µM 60 min [2] [%] | inhibition at 100 µM [3] [%] | AAPH% 100 µM (anti-lipid peroxidation) [4] | ABTS+. % 100 µM (decolorization activity) [5] | Iptr% 100 µM (inhibition of trypsin induced proteolysis) [6] | melting point [°C] | inhibition in vivo at 10 µmol/kg [7] [%] | inhibition at 100 µM [8] [%] |
| --- | --- | --- | --- | --- | --- | --- | --- | --- | --- | --- | --- | --- | --- | --- |
| O=C1C(=C/C=C\c2ccccc2)C(=O)c2ccccc21 [Compound 5, (Z)-2-(3-phenylallylidene)-1H-indene-1,3(2H)-dione] | 0.158 ± 0 | 21 | 25 | 44 | 48 | 57 | 72 | 26.4 | no activity and no | no | do not present any activity and no | 165 to 167 |  |  |
| O=C1C(=Cc2ccc3[nH]ccc3c2)C(=O)c2ccccc21 [Compound 11, (Z)-2-((1H-indol-5-yl)methylene)-1H-indene-1,3(2H)-dione] | −0.196 ± 0.02 | 2 | 2 | 19 | 19 | 10 | 10 | 38.6 | no activity and no | 8% | 6% | 223 to 225 |  |  |
| COc1ccc2c(c1)c(CC(=O)O)c(C)n2C(=O)c1ccc(Cl)cc1 [Indomethacin, reference compound] |  |  |  |  |  |  |  |  |  |  |  |  | 47 |  |
| N=C(N)NCCCNC(=O)[C@@H]1CCCCN1C(=O)[C@@H](CC1CCCCC1)NCC(=O)O [Inogatran, reference compound] |  |  |  |  |  |  |  |  |  |  |  |  |  | 98 |
| CC(Cc1ccc(O)c(O)c1)C(C)Cc1ccc(O)c(O)c1 (centres unmarked) [NDGA, Nordihydroguaretic acid, reference compound] |  | 81 | 83 | 87 | 93 | 94 | 96 |  |  |  |  |  |  |  |
| O=C(O)c1ccccc1O [Salycilic Acid, salicylic acid, reference compound] |  |  |  |  |  |  |  |  |  |  | 54% |  |  |  |
| Cc1c(C)c2c(c(C)c1O)CCC(C)(C(=O)O)O2 (centres unmarked) [Trolox, reference compound] |  |  |  |  |  |  |  |  | 93% | 91% |  |  |  |  |
